Like-named read-outs stand apart in the source and are kept apart here.
What was measured:
[1] = biological target: T1, recombinant soluble tissue factor and recombinant human factor VIIa (TF-VIIa) (Homo sapiens, UniProt P08709); experiment: TF-VIIa Assay; assay type: biochemical
T1 construct: conversion of coagulation factor VII to VIIa by Xa; purchased American Diagnostica, Greenwich Conn; host or cells: factor VIIa purchased; soluble TF made in house in E. coli

[2] = biological target: T2, Trypsin (type 1× from porcine pancreas) (Sus scrofa, UniProt P00761); experiment: Trypsin Assay; assay type: biochemical
T2 construct: Trypsin (5 ug/ml; type 1× from porcine pancreas); purchased Sigma, St. Louis Mo; host or cells: porcine pancreas
T2 sequence (P00761 9-231): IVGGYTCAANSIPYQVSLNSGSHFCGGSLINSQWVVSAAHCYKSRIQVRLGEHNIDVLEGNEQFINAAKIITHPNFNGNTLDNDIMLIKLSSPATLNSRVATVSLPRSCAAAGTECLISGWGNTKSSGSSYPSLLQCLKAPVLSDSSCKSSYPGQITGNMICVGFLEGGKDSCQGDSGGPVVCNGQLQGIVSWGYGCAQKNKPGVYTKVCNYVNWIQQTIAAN

T1 sequence (P08709 213-466 limits assumed): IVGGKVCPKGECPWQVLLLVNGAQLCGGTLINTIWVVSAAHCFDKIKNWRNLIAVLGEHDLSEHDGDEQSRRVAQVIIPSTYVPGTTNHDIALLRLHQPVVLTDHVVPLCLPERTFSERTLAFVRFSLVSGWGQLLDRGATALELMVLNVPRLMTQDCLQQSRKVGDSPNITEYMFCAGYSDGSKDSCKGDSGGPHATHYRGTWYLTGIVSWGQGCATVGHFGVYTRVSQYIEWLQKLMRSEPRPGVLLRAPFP
T1 sequence (P08709 61-212 limits assumed): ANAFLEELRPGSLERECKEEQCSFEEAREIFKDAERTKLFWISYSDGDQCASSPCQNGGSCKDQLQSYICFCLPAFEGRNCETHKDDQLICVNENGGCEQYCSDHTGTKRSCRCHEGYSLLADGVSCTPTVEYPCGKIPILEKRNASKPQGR
T1 sequence (P13726 33-251 partner limits assumed): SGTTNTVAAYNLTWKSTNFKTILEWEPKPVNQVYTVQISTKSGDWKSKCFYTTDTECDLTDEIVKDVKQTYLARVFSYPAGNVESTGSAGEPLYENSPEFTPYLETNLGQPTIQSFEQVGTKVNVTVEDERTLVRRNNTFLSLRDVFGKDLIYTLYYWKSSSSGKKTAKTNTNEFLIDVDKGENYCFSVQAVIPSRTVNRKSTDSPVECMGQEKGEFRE

Row | SMILES | % Inhibition TF-VIIa (100 νM) ([1]; inhibitor at 100 νM) | % Inhibition Trpysin II (100 νM) ([2]; inhibitor at 100 νM) | % Inhibition TF-VIIa (100 νM) [1] | % Inhibition Trpysin II (100 νM) [2]
1 | Cc1c(Cl)nc(NCCc2ccccc2)c(=O)n1CC(=O)NCCc1ccncc1 [Example E-0002] | 0% | 0% |  | 
2 | O=C(Cn1c(-c2ccc(Cl)cc2)c(Cl)nc(NCCN2CCOCC2)c1=O)NCCc1ccncc1 [Example E-0023] | 0% | 1% |  | 
3 | O=C(Cn1c(-c2ccc(Cl)cc2)c(Cl)nc(NCCc2cccnc2)c1=O)NCCc1ccncc1 [Example E-0021] | 0% | 5% |  | 
4 | O=C(Cn1c(CCc2ccccc2)c(Cl)nc(NCCc2ccccc2)c1=O)NCCc1ccncc1 [Example E-0066] | 0% | 0% |  | 
5 | O=C(Cn1c(-c2ccc(Cl)cc2)c(Cl)nc(NCCc2ccccc2)c1=O)NCCc1ccncc1 [Example E-0018] | 1% | 4% |  | 
6 | O=C(Cn1c(-c2ccc(Cl)cc2)c(Cl)nc(NCCc2ccncc2)c1=O)NCCc1ccncc1 [Example E-0030] | 0% | 4% |  | 
7 | O=C(Cn1c(-c2ccc3c(c2)OCO3)c(Cl)nc(NCCc2cccnc2)c1=O)NCCc1ccncc1 [Example E-0045] | 0% | 4% |  | 
8 | COc1ccc(-c2c(Cl)nc(NCCc3cccc(Cl)c3)c(=O)n2CC(=O)NCCc2ccncc2)cc1 [Example E-0035] | 4% | 2% |  | 
9 | O=C(Cn1c(-c2ccc3c(c2)OCO3)c(Cl)nc(NCCc2ccncc2)c1=O)NCCc1ccncc1 [Example E-0046] | 0% | 4% |  | 
10 | O=C(Cn1c(Cc2ccccc2)c(Cl)nc(NCCN2CCOCC2)c1=O)NCCc1ccncc1 [Example E-0063] | 0% | 0% |  | 
11 | O=C(Cn1c(-c2ccc3c(c2)OCO3)c(Cl)nc(NCCc2ccc(Cl)cc2)c1=O)NCCc1ccncc1 [Example E-0044] | 0% | 3% |  | 
12 | COc1ccc(-c2c(Cl)nc(NCc3ccccc3)c(=O)n2CC(=O)NCCc2ccncc2)cc1 [Example E-0097] | 0% | 11% |  | 
13 | COc1ccc(-c2c(Cl)nc(NCCN3CCOCC3)c(=O)n2CC(=O)NCCc2ccncc2)cc1 [Example E-0039] | 0% | 2% |  | 
14 | O=C(Cn1c(-c2ccc(Cl)cc2)c(Cl)nc(NCc2ccncc2)c1=O)NCCc1ccncc1 [Example E-0032] | 0% | 3% |  | 
15 | O=C(Cn1c(-c2cccc(Cl)c2)c(Cl)nc(NCCc2ccccc2)c1=O)NCCc1ccncc1 [Example E-0088] | 0% | 9% |  | 
16 | O=C(Cn1c(-c2ccccc2)c(Cl)nc(NCCc2ccncc2)c1=O)NCCc1ccncc1 [Example E-0014] | 0% | 0% |  | 
17 | O=C(Cn1c(-c2ccc3c(c2)OCO3)c(Cl)nc(NCc2ccccc2)c1=O)NCCc1ccncc1 [Example E-0041] | 0% | 2% |  | 
18 | COc1ccc(-c2c(Cl)nc(NCCc3ccccc3)c(=O)n2CC(=O)NCCc2ccncc2)cc1 [Example E-0034] | 0% | 3% |  | 
19 | Cc1c(Cl)nc(NCc2ccncc2)c(=O)n1CC(=O)NCCc1ccncc1 [Example E-0008] | 0% | 0% |  | 
20 | COc1ccc(-c2c(Cl)nc(NCCc3cccc(Cl)c3)c(=O)n2CC(=O)NCCc2ccncc2)cc1 [Example E-0103] | 2% | 11% |  | 
21 | O=C(Cn1c(-c2ccc(Cl)cc2)c(Cl)nc(NCc2ccccc2)c1=O)NCCc1ccncc1 [Example E-0017] | 0% | 1% |  | 
22 | Cc1c(Cl)nc(NCCc2ccncc2)c(=O)n1CC(=O)NCCc1ccncc1 [Example E-0006] | 2% | 1% |  | 
23 | Cc1c(Cl)nc(NCCc2cccc(Cl)c2)c(=O)n1CC(=O)NCCc1ccncc1 [Example E-0003] | 0% | 0% |  | 
24 | O=C(Cn1c(-c2ccccc2)c(Cl)nc(NCc2ccccc2)c1=O)NCCc1ccncc1 [Example E-0009] | 0% | 1% |  | 
25 | O=C(Cn1c(-c2ccc(-c3ccccc3)cc2)c(Cl)nc(NCc2ccccc2)c1=O)NCCc1ccncc1 [Example E-0049] |  |  | 2% | 0%
26 | O=C(Cn1c(-c2ccc(Cl)cc2)c(Cl)nc(NCCc2ccc(Cl)cc2)c1=O)NCCc1ccncc1 [Example E-0028] | 0% | 3% |  | 

Row | SMILES | % Inhibition TF-VIIa (100 νM) ([1]; inhibitor at 100 νM) | % Inhibition Trpysin II (100 νM) ([2]; inhibitor at 100 νM) | % Inhibition TF-VIIa (100 νM) [1] | % Inhibition Trpysin II (100 νM) [2]
27 | COc1ccc(-c2c(Cl)nc(NCc3ccccc3)c(=O)n2CC(=O)NCCc2cccnc2)cc1 [Example E-0098] | 0% | 8% |  | 
28 | O=C(Cn1c(-c2cccc(Cl)c2)c(Cl)nc(NCCc2ccccc2)c1=O)NCCc1cccnc1 [Example E-0077] | 0% | 7% |  | 
29 | O=C(Cn1c(Cc2ccccc2)c(Cl)nc(NCc2ccccc2)c1=O)NCCc1ccncc1 [Example E-0057] | 0% | 0% |  | 
30 | O=C(Cn1c(CCc2ccccc2)c(Cl)nc(NCc2ccccc2)c1=O)NCCc1ccncc1 [Example E-0065] | 0% | 0% |  | 
31 | O=C(Cn1c(Cc2ccccc2)c(Cl)nc(NCCc2cccnc2)c1=O)NCCc1ccncc1 [Example E-0061] | 0% | 0% |  | 
32 | O=C(Cn1c(-c2ccc(-c3ccccc3)cc2)c(Cl)nc(NCCc2ccc(Cl)cc2)c1=O)NCCc1ccncc1 [Example E-0118] |  |  | 12% | 9%
33 | O=C(Cn1c(-c2ccccc2)c(Cl)nc(NCCc2cccnc2)c1=O)NCCc1ccncc1 [Example E-0013] | 0% | 1% |  | 
34 | O=C(Cn1c(-c2cccc(Cl)c2)c(Cl)nc(NCc2ccccc2)c1=O)NCCc1cccnc1 [Example E-0086] | 0% | 11% |  | 
35 | O=C(Cn1c(-c2ccc3c(c2)OCO3)c(Cl)nc(NCCN2CCOCC2)c1=O)NCCc1ccncc1 [Example E-0047] | 0% | 2% |  | 
36 | O=C(Cn1c(-c2ccc(Cl)cc2)c(Cl)nc(NCCc2cccc(Cl)c2)c1=O)NCCc1ccncc1 [Example E-0019] | 0% | 2% |  | 
37 | O=C(Cn1c(CCc2ccccc2)c(Cl)nc(NCCc2cccc(Cl)c2)c1=O)NCCc1ccncc1 [Example E-0067] | 0% | 0% |  | 
38 | O=C(Cn1c(Cc2ccccc2)c(Cl)nc(NCCc2cccc(Cl)c2)c1=O)NCCc1ccncc1 [Example E-0059] | 0% | 0% |  | 
39 | O=C(Cn1c(-c2ccc(Cl)cc2)c(Cl)nc(NCCc2ccc(Cl)cc2)c1=O)NCCc1ccncc1 [Example E-0020] | 0% | 4% |  | 
40 | O=C(Cn1c(-c2cccc(Cl)c2)c(Cl)nc(NCCc2ccc(Cl)cc2)c1=O)NCCc1ccncc1 [Example E-0082] | 4% | 3% |  | 
41 | O=C(Cn1c(Cc2ccccc2)c(Cl)nc(NCCc2ccccc2)c1=O)NCCc1ccncc1 [Example E-0058] | 0% | 0% |  | 
42 | O=C(Cn1c(-c2ccc(Cl)cc2)c(Cl)nc(NCc2ccncc2)c1=O)NCCc1ccncc1 [Example E-0024] | 0% | 1% |  | 
43 | O=C(Cn1c(-c2cccc(Cl)c2)c(Cl)nc(NCCc2cccc(Cl)c2)c1=O)NCCc1cccnc1 [Example E-0080] | 1% | 5% |  | 
44 | O=C(Cn1c(-c2cccc(Cl)c2)c(Cl)nc(NCCc2ccc(Cl)cc2)c1=O)NCCc1ccncc1 [Example E-0094] | 2% | 7% |  | 
45 | O=C(Cn1c(-c2ccccc2)c(Cl)nc(NCCc2ccc(Cl)cc2)c1=O)NCCc1ccncc1 [Example E-0012] | 0% | 0% |  | 
46 | O=C(Cn1c(-c2ccccc2)c(Cl)nc(NCCc2cccc(Cl)c2)c1=O)NCCc1ccncc1 [Example E-0011] | 0% | 0% |  | 
47 | O=C(Cn1c(CCc2ccccc2)c(Cl)nc(NCCc2ccc(Cl)cc2)c1=O)NCCc1ccncc1 [Example E-0068] | 0% | 0% |  | 
48 | O=C(Cn1c(CCc2ccccc2)c(Cl)nc(NCc2ccncc2)c1=O)NCCc1ccncc1 [Example E-0072] | 0% | 0% |  | 
49 | O=C(Cn1c(-c2cccc(Cl)c2)c(Cl)nc(NCCc2ccccc2)c1=O)NCCc1cccnc1 [Example E-0089] | 3% | 8% |  | 
50 | O=C(Cn1c(Cc2ccccc2)c(Cl)nc(NCc2ccncc2)c1=O)NCCc1ccncc1 [Example E-0064] | 0% | 0% |  | 
51 | O=C(Cn1c(-c2ccc3c(c2)OCO3)c(Cl)nc(NCc2ccncc2)c1=O)NCCc1ccncc1 [Example E-0048] | 0% | 0% |  | 
52 | O=C(Cn1c(-c2ccc(Cl)cc2)c(Cl)nc(NCc2ccccc2)c1=O)NCCc1ccncc1 [Example E-0025] | 0% | 3% |  | 
